Values of other authors, collected in patent US9408814B2, “Modified release dosage form comprising desvenlafaxine or salts thereof” (WOCKHARDT LIMITED, priority 2010, dated 2016).
Read-outs that look alike come from different tables or passages of the source.

What was measured:
[1] = not given; remark: listed apart in the source
[2] = at pH 7.0

Row | Compound | pKa (dimethylamino group) | pKa (phenolic group) | pH dependence of solubility ([1]; solubility increases at lower pH) | solubility in water ([1]; water) | octanol:aqueous system partition coefficient [2] | solubility at gastric pH ([1]; gastric pH) | solubility at intestinal pH ([1]; intestinal pH)
1 | CN(C)CC(c1ccc(O)cc1)C1(O)CCCCC1 (stereo not shown) [Desvenlafaxine succinate] | 8.34 | 10.11 | pH dependent | soluble in water | 0.21 | – | –
2 | CN(C)CC(c1ccc(O)cc1)C1(O)CCCCC1.O=C(O)CCC(=O)O (stereo not shown) [Desvenlafaxine, RS-4-[2-dimethylamino-1-(1-hydroxycyclohexyl)ethyl]phenol] | – | – | – | – | – | relatively good solubility | poor solubility
